Test results as given in US20130310440A1, “METHOD FOR TREATING NON-SMALL CELL LUNG CANCER” (TEVA PHARMACEUTICAL INDUSTRIES LTD., priority 2012, published 2013).
Read-outs that look alike come from different tables or passages of the source. In the oligonucleotide strings, read from the 5' end, every base follows the letter of its sugar. An asterisk marks phosphorothioate; unmarked linkages are phosphodiester. Other units and linkages are bracketed, terminal groups are in braces. A string of capitals states the bases alone. e = 2'-O-(2-methoxyethyl) (MOE); [5mC] = 5-methylcytosine; d = 2'-deoxy (DNA)

Legend:
NSCLC = conditions: patients treated with docetaxel in the 2nd line setting; cited from earlier work
[1] = cited from earlier work
CYP3A4 = CYP3A4 (Homo sapiens, UniProt P08684); conditions: cited from earlier work
[2] = human, in vivo; cited from earlier work
[3] = test system: Stage IV Non-Squamous Non-Small Cell Lung Cancer; assay: Phase III study: paclitaxel/carboplatin with or without custirsen (Examples 1 and 2); type: in vivo, human
Description: Subjects randomized to the custirsen arm first receive three doses of custirsen in a 5 to 9 day loading dose period prior to Day 1 of Cycle 1. Subjects randomized to both study arms have 21-day chemotherapy cycles until disease progression, unacceptable toxicity, or completion of 6 cycles; however, subjects randomized to the custirsen arm also receive weekly doses of custirsen starting at Day 1 of each of the 21-day chemotherapy cycles until disease progression, unacceptable toxicity, or completion of all 6 cycles.
This is a randomized, open-label, sponsor-blinded multinational trial. Treatment consists of paclitaxel/carboplatin/custirsen vs. paclitaxel/carboplatin, which compose the two arms of the study.
After a screening period of up to 28 days, subjects are randomly assigned with equal probability to the two arms. Stratified randomization is used in order to minimize between-arm imbalance over four stratification factors: Gender, Eastern Cooperative Oncology Group (ECOG) performance status (0 vs. 1), Smoking status (former/current smoker vs. never-smoker) and Geographical Region (North America, Europe and Southeast Asia).
Subjects randomized to the custirsen arm have a 5 to 9 day loading dose period prior to Day 1 of Cycle 1. […] Subjects who are removed from study treatment for any reason other than disease progression or death are followed for documented disease progression. Once disease progression is documented, subjects enter a survival follow-up phase during which data is collected regarding further cancer treatment and their survival status.
Tumor response to study treatment and disease progression is based on the criteria proposed by the Response Evaluation Criteria in Solid Tumors (RECIST) 1.1 guidelines. All subjects undergo CT or MRI scans of the chest and upper abdomen, as well as any other areas clinically indicated, at screening, then every 6 weeks, starting at week 8 for the first 26 weeks (week 8, 14, 20 and 26) and then every 12 weeks after the week 26 scan until disease progression. These time points are kept within a window of +one week, regardless of the treatment schedule. The week 26 scan is performed as scheduled, regardless of whether the patient is still in the treatment period (i.e. due to treatment delays) or has already completed the end of treatment visit. Once a patient is discontinued from study treatment for documented disease progression, scanning is no longer required. Assessment of these scans is carried out in a blinded fashion, by a Central Imaging Lab.
Adverse events are recorded at each visit during the study and 28 days after the last dose of study treatment. Medical history is assessed at screening and an electrocardiogram is performed. Physical examination, assessment of the ECOG performance status, vital signs and laboratory evaluations are conducted at screening and throughout the study. Adverse events are recorded from when a subject is signed the Informed Consent Form and throughout the study, until the end of the treatment visit (28 days following last dose). They are reviewed and updated at each subsequent visit and during any phone contact with the subject.
The general health status, as reported by the subjects is assessed by the EuroQoL (EQ-5D) and FACT-L questionnaires. Medical resource utilization is also compared between the treatment arms. The EQ-5D is a standardized instrument for use as a measure of health outcome. Applicable to a wide range of health conditions and treatments, it provides a simple descriptive profile and a single index value for health status that can be used in the clinical and economic evaluation of health care as well as population health surveys. EQ-5D is designed for self-completion by subjects. In this study the instrument is self-administrated.
640 mg in 250 mL normal saline IV over 2 hours.
Carboplatin AUC 6.0 mg/ml/min IV over 30 minutes.
The primary outcome measure is overall survival (OS). […]

[4] = test system: Advanced or Metastatic (Stage IV) Non Small Cell Lung Cancer; assay: Phase III study: custirsen plus docetaxel versus docetaxel, second line (Example 3); type: in vivo, human
Description: A Multinational, Randomized, Open-Label Phase III Study of Custirsen (TV-1011/OGX-011) In Combination With Docetaxel Versus Docetaxel As A Second-Line Treatment In Patients with Advanced or Metastatic (Stage IV) Non Small Cell Lung Cancer.
Patients randomized to the custirsen arm (Arm A) have 3 doses of custirsen administered in a 5 to 9 day Loading Dose Period prior to Day 1 of Cycle 1. Patients in Arm A receive custirsen on Days 1, 8 and 15, and docetaxel on Day 1 of the 21-day cycles. Patients in Arm B receive only docetaxel on Day 1 of the 21-day cycles. Patients randomized to both arms have 21-day chemotherapy cycles until disease progression, unacceptable toxicity, withdrawal of consent or protocol specified parameters to stop treatment.
After a screening period of up to 28 days, patients are randomized 1:1 to receive either docetaxel and custirsen (Arm A) or docetaxel (Arm B). Randomization is stratified by gender (male vs. female), NSCLC histology (squamous vs. non-squamous), best overall response to the first-line platinum-based therapy (SD/CR/PR vs. PD) and ECOG PS (0 vs. 1) to minimize imbalance at randomization. Patients randomized to Arm A receive 3 doses of custirsen administered in a 5 to 9 day Loading Dose Period prior to Day 1 of Cycle 1. Following the Loading Dose period, patients in Arm A receive custirsen on Days 1, 8 and 15, and docetaxel on Day 1 of the 21-day cycle. Patients in Arm B receive only docetaxel on Day 1 of the 21-day cycle. Patients randomized to both study arms have 21-day chemotherapy cycles until disease progression, unacceptable toxicity, withdrawal from study treatment, or protocol specified parameters to stop treatment. Patients who are removed from study treatment for any reason other than disease progression or death are followed for documented radiological disease progression. All patients who discontinued study treatment are followed to collect further anticancer treatment and survival information until death, loss to follow-up, withdrawal of consent, or up to 12 months after the end of treatment visit for the last patient on the study, whichever comes first.
Tumor response to study treatment and disease progression are based on the criteria proposed by the Response Evaluation Criteria in Solid Tumors (RECIST) guideline (version 1.1). All patients undergo CT or MRI scans of the chest and upper abdomen, as well as any other areas clinically indicated, at screening, then every 6 weeks, starting at week 8 after randomization until disease progression. Tumor measurement is also performed during the end of treatment visit if it is not done within the previous 6 weeks. Patients who discontinue study treatment for reasons other than disease progression continue to have tumor measurements per RECIST v1.1 until disease progression, start of new anticancer therapy, withdrawal of consent, lost to follow-up, or death, whichever occurs first. Assessment of these scans is carried out in a blinded fashion, by a Central Imaging Lab designated by the Sponsor.
Adverse events and concomitant medications are collected throughout the study up to 28 days after the last dose of study treatment. Medical history is assessed, documented results of EGFR and KRAS mutation status are collected, if available, and an electrocardiogram is performed at screening. Physical examination, assessment of the ECOG Performance Status, vital signs, and laboratory evaluations are conducted at screening and throughout the study.
The general health status, as reported by the patients, are assessed by the Functional Assessment of Cancer Therapy-Lung (FACT-L) questionnaire.
Study Agent: Three loading doses of custirsen 640 mg IV over 2 hours administered in 5 to 9 days prior to Day 1 of Cycle 1, then custirsen 640 mg IV over 2 hours on Days 1, 8 and 15 of a 21-day cycle.
Chemotherapy: Docetaxel 75 mg/m^2 IV over 1 hour on Day 1 of a 21-day cycle. […]

[5] = test system: cancerous human prostate, breast, ovarian, lung, renal, bladder, and melanoma cells; conditions: cited from earlier work
clusterin = conditions: cited from earlier work
stage IIIB or IV NSCLC = assay: Phase 1-2 study of weekly custirsen plus a gemcitabine/platinum-based regimen: survival by serum clusterin; type: in vivo, human; conditions: for median survival time: plus gemcitabine/platinum
Method: The relationship between serum clusterin levels and the duration of individual survival was evaluated during a phase 1-2 study of weekly custirsen plus a gemcitabine/platinum-based regimen in patients with stage IIIB or IV NSCLC. Not all of the patients in this study had baseline levels of clusterin measured. However, starting with N=69 subjects with measured baseline clusterin levels, fitting the Cox proportional hazards (PH) model with baseline clusterin as sole predictor gives p=0.10; the coefficient is positive, so that higher clusterin is associated with increased survival risk. Among the N=55 subjects who also had post-baseline data collected, fitting the same PH model gives p=0.05, again with positive coefficient.
A careful search for possible cutpoints, using all N=69 subjects with baseline clusterin levels, produced 71 μg/mL as a strong candidate.
Among all N=69 subjects with a baseline clusterin level, there were […] with clusterin ≦71 μg/mL (median survival time was 18.8 months), and N=26 subjects with baseline clusterin >71 μg/mL (median survival time was 10.2 months); the log-rank p-value=0.004. Removing the N=14 early discontinuers leaves N=35 subjects with baseline clusterin ≦71 μg/mL (median survival time was 28.7 months), and N=20 subjects with baseline clusterin >71 μg/mL (median survival time was 12.2 months); the log-rank p-value=0.0002.
To further assess the relevance of baseline clusterin as a predictor of survival, data from the study were further segregated based on average and minimum clusterin levels achieved during treatment.

[6] = in vivo
Method: Three doses of 640 mg custirsen are administered IV during the Loading Dose Period (Days −9 to −1). There is at least one “non-infusion” day between each administration of custirsen (i.e. every other day) during the Loading Dose Period and between the third loading dose of custirsen and Day 1 of Cycle 1. The day prior to Day 1 of Cycle 1 (Day 0) is a “no treatment” day. There are no more than 4 days between the last loading dose and Day 1 of Cycle 1. A common schedule is to give the three loading doses of custirsen on Monday, Wednesday and Friday with Day 1, Cycle 1 starting on the following Monday. Up to nine days are allowed for completing the three loading doses prior to Day 0 to account for clinic visits, weekends, and holidays. Subjects receive each dose of custirsen as a 2 hour infusion.

CYP3A4, sequence (P08684 whole entry): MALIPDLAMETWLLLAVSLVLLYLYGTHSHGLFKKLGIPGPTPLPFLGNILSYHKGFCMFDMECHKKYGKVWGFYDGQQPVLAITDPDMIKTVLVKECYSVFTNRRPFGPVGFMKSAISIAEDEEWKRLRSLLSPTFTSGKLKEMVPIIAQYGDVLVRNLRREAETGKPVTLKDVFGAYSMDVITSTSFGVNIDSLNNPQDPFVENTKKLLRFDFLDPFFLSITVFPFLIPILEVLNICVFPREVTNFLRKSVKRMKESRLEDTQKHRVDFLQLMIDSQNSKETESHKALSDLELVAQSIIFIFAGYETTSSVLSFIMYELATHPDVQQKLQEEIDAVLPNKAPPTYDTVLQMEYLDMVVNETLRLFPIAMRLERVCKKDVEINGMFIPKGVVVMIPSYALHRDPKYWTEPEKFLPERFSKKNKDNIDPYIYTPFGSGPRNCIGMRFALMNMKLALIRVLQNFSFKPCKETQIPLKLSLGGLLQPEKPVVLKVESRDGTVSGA

For `CC(=O)O[C@@]12CO[C@@H]1C[C@H](O)[C@@]1(C)C(=O)[C@H](O)C3=C(C)[C@@H](OC(=O)[C@H](O)[C@@H](NC(=O)OC(C)(C)C)c4ccccc4)C[C@@](O)([C@@H](OC(=O)c4ccccc4)[C@H]21)C3(C)C` [Docetaxel], the “median PFS” value (NSCLC) is given as “about 3 months”, the “grade 4 neutropenia (<500 cells/mm^3), patients affected” value ([1]; 60 mg/m^2) is given as 75% and the “grade 4 neutropenia (<500 cells/mm^3), patients affected” value ([1]; 100 mg/m^2) is given as 85%. For the same compound, the “Neutropenia (<2,000 neutrophils/mm3), patients affected” value ([1]; 60-100 mg/m^2) was “virtually all patients”, the “incidence of treatment-related mortality” value ([1]; abnormal liver function, higher doses, or NSCLC with prior platinum-based chemotherapy, single agent 100 mg/m^2) was “increased” and the “most common side effects” value ([1]; human, in vivo) was “infections, neutropenia, anemia, febrile neutropenia, hypersensitivity, thrombocytopenia, neuropathy, dysgeusia, dyspnea, constipation, anorexia, nail disorders, fluid retention, asthenia, pain, nausea, diarrhea, vomiting, mucositis, alopecia, skin reactions and myalgia”. The CYP3A4 substrate status (CYP3A4) was “CYP3A4 substrate”.
For `N.N.O=C([O-])C1(C(=O)[O-])CCC1.[Pt+2]` [carboplatin, Carboplatin], the major dose-limiting toxicity [2] is given as “Bone marrow suppression”.
With “custirsen: anti-clusterin antisense oligonucleotide CAGCAGCAGAGTCTTCATCAT (Seq. ID No.: 1), phosphorothioate backbone, 2′-O-methoxyethyl at nucleotides 1-4 and 18-21, 5-methylcytosines at 1, 4, 19 (antisense e[5mC]*eA*eG*e[5mC]*dA*dG*dC*dA*dG*dA*dG*dT*dC*dT*dT*dC*dA*eT*e[5mC]*eA*eT; listed as Homo sapiens)” the overall survival ([3]; Arm A (custirsen+paclitaxel/carboplatin) compared to Arm B (paclitaxel/carboplatin)) was “prolonged survival”, the progression free survival ([3]; Arm A compared to Arm B) was “increased” and the “proportion of subjects surviving free of progression for at least 14 weeks” value ([3]; Arm A compared to Arm B) was “statistically significant higher proportion”. The quality of life ([3]; Arm A compared to Arm B) was “improves”, the “symptoms of NSCLC (chest pain, pleural effusions, pulmonary edema, dyspnea, hemoptysis)” value ([3]; Arm A compared to Arm B) was “occasionally improve” and the “survival by baseline serum clusterin” value ([3]; Arm A patients, baseline clusterin below 71 μg/mL versus above 71 μg/mL) was “tend to survive longer”. The safety and tolerability ([3]; custirsen 640 mg IV + paclitaxel/carboplatin (Arm A)) was “safe and well tolerated”, the overall survival ([4]; Arm A (custirsen+docetaxel) compared to Arm B (docetaxel)) was “prolonged survival” and the progression free survival ([4]; Arm A compared to Arm B) was “increased”. For the same compound, the “proportion of subjects surviving free of progression for at least 14 weeks” value ([4]; Arm A compared to Arm B) was “statistically significant higher proportion”, the quality of life ([4]; Arm A compared to Arm B) was “improves” and the “symptoms of NSCLC (chest pain, pleural effusions, pulmonary edema, dyspnea, hemoptysis)” value ([4]; Arm A compared to Arm B) was “occasionally improve”. The safety and tolerability ([4]; custirsen 640 mg IV + docetaxel 75 mg/m^2 (Arm A)) was “safe and well tolerated”, the apoptosis [5] was “facilitates apoptosis” and the “sensitization of cancer cells to chemotherapy” value [5] was “sensitizes”. For the same compound, the expression of clusterin (clusterin) was “potently reduces the expression of clusterin”, the “probability of extended survival by baseline and on-treatment clusterin” value (stage IIIB or IV NSCLC; low baseline clusterin (71 μg/mL cutpoint) and low levels during therapy (33 μg/mL average or 30 μg/mL minimum cutpoint)) was “greatest probability of extended survival” and the median survival time (stage IIIB or IV NSCLC; all subjects with baseline clusterin level, clusterin >71 μg/mL (N=26)) was 10.2 months. The median survival time (stage IIIB or IV NSCLC; all subjects with baseline clusterin level, clusterin ≦71 μg/mL (N=45)) was 18.8 months, the median survival time (stage IIIB or IV NSCLC; early discontinuers removed, baseline clusterin >71 μg/mL (N=20)) was 12.2 months and the median survival time (stage IIIB or IV NSCLC; early discontinuers removed, baseline clusterin ≦71 μg/mL (N=35)) was 28.7 months. The “grade 1-2 constitutional symptoms (e.g., fever and chills), subjects affected” value [6] was 50-60%.
